Paper PMC5007486, “Thermodynamic instability of viral proteins is a pathogen-associated molecular pattern targeted by human defensins” (Scientific Reports, 2016)
Where no end group is shown, it is not given here.

How the values were obtained:
TEV Protease [1] = format: binding, tobacco etch virus (TEV); settings: DSF
Source text: (§1) Differential scanning fluorimetry (DSF)

PFV IN [2] = system: PFV IN; set-up: species or system prototype foamy virus (PFV); settings: 5 μM PFV IN, 3-fold molar excess HNP-1, chymotrypsin (1:100 w/w) or thermolysin (1:200 w/w), 37 °C, 20 mM HEPES pH 7.5, 100 mM NaCl, 5 mM CaCl2, SDS-PAGE
Experimental: Limited proteolysis was conducted as described previously. […] The protein samples were resolved on SDS-PAGE.

TEV Protease [3] = system: TEV Protease; set-up: species or system tobacco etch virus (TEV); settings: 10 μM protein; HNP-1 20 and 50 μM or RC-101 30 and 60 μM; 30 min, […] °C, pH 7.5, 100 mM NaCl; 280,000 g, SDS-PAGE
Experimental: Precipitation of HIV-1 MA, HIV-1 CA, and TEV protease was assessed by differential ultracentrifugation. […] All samples were centrifuged using TLA-100 rotor in Optima TL-100 ultracentrifuge (Beckman Coulter) at 280,000 g for 30 min at 4 °C. The supernatant (soluble) and pellet (precipitated) fractions were collected, supplemented with 1/3rd of the volume of 4x reducing sample buffer (200 mM Tris, pH 6.8, 40% glycerol, 8% SDS, 400 mM β-mercaptoethanol, 0.4% bromophenol blue), pellets resuspended, and samples resolved on SDS-PAGE.

TEV Protease [4] = format: biochemical, tobacco etch virus (TEV); settings: disulfide bonds reduced with 10 mM TCEP, one hour pre-incubation at room temperature
Experimental: TEV protease activity assay
The reactions were stopped by boiling in reducing sample buffer; proteolytic products were resolved on SDS-PAGE. For reducing condition experiments, the reaction buffer was supplemented with 10 mM tris(2-carboxyethyl)phosphine (TCEP) and the defensins were pre-incubated with 10 mM TCEP for one hour at room temperature before co-incubation with the TEV protease. Note, the ammonium salt of TCEP (Sigma #646547) used in this study has neutral pH (7.0). Care was taken to verify that the final pH of the working solutions was not changed after the addition of TCEP.

HIV-1 MA = settings: 10 μM MA, 3-fold molar excess HNP-1, chymotrypsin (1:100 w/w) or thermolysin (1:200 w/w), 37 °C, 20 mM HEPES pH 7.5, 100 mM NaCl, 5 mM CaCl2, SDS-PAGE
Experimental: (§3) Briefly, viral proteins (5–10 μM) were mixed with 3-fold molar excess of HNP-1 (i.e. 15–30 μM) in a 20 mM HEPES buffer (pH 7.5) supplemented with 100 mM NaCl and 5 mM CaCl2. […] The reactions were stopped by adding reducing sample buffer (50 mM Tris, pH 6.8, 10% glycerol, 2% sodium dodecyl sulfate (SDS), 100 mM β-mercaptoethanol, 0.1% bromophenol blue) supplemented with 2 mM phenylmethylsulfonyl fluoride (PMSF) and 10 mM ethylenediaminetetraacetic acid (EDTA) and boiling for 5 min. The protein samples were resolved on SDS-PAGE.

HIV-1 CA [5] = settings: 10 μM CA, 3-fold molar excess HNP-1, chymotrypsin (1:100 w/w) or thermolysin (1:200 w/w), 37 °C, 20 mM HEPES pH 7.5, 100 mM NaCl, 5 mM CaCl2, SDS-PAGE
Experimental: as §3

HIV-1 IN [6] = settings: HTRF; IN 400 nM; defensin 1–10 μM, 30 min room temperature; strand transfer three hours 37 °C, pH 7.5
Experimental: Homogenous time-resolved fluorescence (HTRF)-based integration activity assay
To test the HIV-1 integrase (IN) activity in the presence and absence of defensins, previously developed HTRF technique[41][42] was used with some modifications. […] Following the incubation with the defensins, a 5′-Cy5-labelled 21-mer viral donor DNA (200 nM) and 3′-biotinylated target DNA (20 nM) were added to the reaction. […] 0.5 M NaCl (final concentration in the development solution) allows dissociating of all DNA from IN to prevent FRET signal from non-covalently associated donor and target DNA. Following an overnight incubation at 4 °C, the HTRF signal was recorded with an EnSpire multimode plate reader (PerkinElmer).

HSV = system: HSV; set-up: method as in PMID 17142766; settings: cited from earlier work
gp41 [7] = settings: cited from earlier work
gp41 [8] = settings: cited from earlier work; remark: listed apart in the source
HIV-1 = settings: cited from earlier work
[9] = system: Gram-negative and Gram-positive bacteria; settings: reduction of disulfide bonds; cited from earlier work
Source text: (§2) Three characteristic disulfide bonds stabilize the defensins’ structure and are essential for some, but not all functions of the peptides. […] This is likely because the preserved defensin structure is required in the later case, when the cell wall synthesis machinery is targeted, but not in the former case, when defensins directly affect membranes of Gram-negative bacteria. In contrast, reduction of disulfi ...

[10] = cited from earlier work
Source text: as §2

chemokine receptor CCR6 = system: chemokine receptor CCR6; set-up: method as in PMID 12840147; settings: binding and activation of CCR6; cited from earlier work
PFV IN [11] = format: binding, prototype foamy virus (PFV); settings: DSF, 5-fold molar excess of cyclotide
Source text: as §1

[12] = system: Actin Crosslinking Domain (ACD); format: binding, Vibrio cholerae; settings: 5-molar excess of peptide to the toxin
HIV-1 Gag-Δp6 = settings: DSF, 5-fold molar excess of cyclotide
Experimental: (§4) Viral protein samples (5–20 μM) in a 20 mM 4-(2-hydroxyethyl)-1-piperazineethanesulfonic acid (HEPES) buffer (pH 7.5) supplemented with 150 mM NaCl and 1x SYPRO Orange dye (Invitrogen) were subjected to temperature denaturation in the absence or presence of defensins. […] Temperature melting profiles were acquired with a CFX96 Touch Real-Time PCR Detection System (Bio-Rad). Melting temperatures for proteins alone and in the presence of different defensins were calculated as described previously[76].

HIV-1 CA [13] = settings: DSF, 5-fold molar excess of cyclotide
Experimental: as §4

HIV-1 IN [14] = settings: DSF, 5-fold molar excess of cyclotide
Experimental: as §4

[15] = system: gp41-derived peptide mixture of N36/C34; set-up: method as in PMID 16648135; settings: cited from earlier work
dengue virus DENV-2 = system: dengue virus DENV-2; set-up: method as in PMID 23171075; settings: activity greatly increased with elevated temperature; cited from earlier work
serine protease = system: serine protease; set-up: method as in PMID 23171075; settings: greatly increased with elevated temperature; cited from earlier work
Ad5.F35 capsid = settings: CryoEM; with signs of local disorganization of hexon, penton base, fiber; cited from earlier work
Source text: It is likely that the potent destabilizing effects imposed by defensins are pertinent at numerous physiological occasions and particularly upon dynamic structural transitions in the course of capsid assembly, uncoating, and membrane fusion. Yet, we are far from proposing that the destabilization of purified viral proteins by defensins observed in vitro accurately represents the complexity of physiological conditions including, but not limited to, interactions of viral proteins with each other, viral nucleic acids, and host proteins. Thus, in apparent contradiction with our resu ...

Molecule: HNP-1: human neutrophil α-defensin peptide HNP-1, prepared by solid-phase peptide synthesis
- Ability to promote unfolding of TEV protease, reducing conditions (TEV Protease [1]; disulfide bonds reduced with 10 mM TCEP): complete loss
- Detectable amounts of cleaved products of PFV IN (PFV IN [2]): drastic reduction in the detectable amounts of cleaved products
- Precipitation of TEV protease (TEV Protease [3]): dose-dependent precipitation
- Ability to inhibit proteolytic activity of TEV protease, reducing conditions (TEV Protease [4]): complete loss
- Detectable amounts of cleaved products of HIV-1 MA (HIV-1 MA): drastic reduction in the detectable amounts of cleaved products
- Detectable amounts of cleaved products of HIV-1 CA (HIV-1 CA [5]): drastic reduction in the detectable amounts of cleaved products
- Strand transfer activity of HIV-1 IN (HIV-1 IN [6]): inhibited the strand transfer activity of IN
- HSV infection (HSV): inhibit HIV-1 and HSV infections at multiple steps
- Refolding lifetime of gp41 intermediates in pre-hairpin conformation (gp41 [7]): prolong refolding lifetime of gp41 intermediates in pre-hairpin conformation
- Refolding of gp41 into 6-helix bundle (gp41 [8]): impaired refolding of gp41 into the 6-helix bundle structure triggering their aggregation
- HIV-1 infection (HIV-1): inhibit HIV-1 and HSV infections at multiple steps

Molecule: hBD-1: human β-defensin hBD-1, prepared by solid-phase peptide synthesis (DHYNCVSSGGQCLYSACPIFTKIQGTCYRGKAKCCK; ends and bridges not checked; cysteine pairing not given here; UniProt P60022 33-68, looked up)
- Effect on thermal melting of TEV protease, reducing conditions (TEV Protease [1]; reduced β-defensin, 10 mM TCEP): had no effect on thermal melting
- Effect of disulfide reduction on antimicrobial activity [9]: activates hBD-1 antimicrobial activity against both Gram-negative and Gram-positive bacteria

Molecule: hBD-3: human beta-defensin 3 (GIINTLQKYYCRVRGGRCAVLSCLPKEEQIGKCSTRGRKCCRRKK; ends and bridges not checked; cysteine pairing not given here; UniProt P81534 23-67, looked up)
- Need of disulfide bonds for antimicrobial activity [10]: dispensable for its antimicrobial activity
- Need of disulfide bonds for chemotactic activity (chemokine receptor CCR6): required for its chemotactic activity

Molecule: kalata B1 [kB1]
- Ability to potentiate unfolding of PFV IN (PFV IN [11]): none of the four cyclotides used in this study (cyO2, cyO19, kB1, and kB7) demonstrated an ability to potentiate unfolding
- Ability to potentiate unfolding of TEV protease (TEV Protease [1]; 5-fold molar excess of cyclotide): none of the four cyclotides used in this study (cyO2, cyO19, kB1, and kB7) demonstrated an ability to potentiate unfolding
- Unfolding / DSF thermal denaturation profile of ACD toxin [12]: none of the four cyclotides used in this study (cyO2, cyO19, kB1, and kB7) demonstrated an ability to potentiate unfolding
- Ability to potentiate unfolding of HIV-1 Gag-Δp6 (HIV-1 Gag-Δp6): none of the four cyclotides used in this study (cyO2, cyO19, kB1, and kB7) demonstrated an ability to potentiate unfolding
- Ability to potentiate unfolding of HIV-1 CA (HIV-1 CA [13]): none of the four cyclotides used in this study (cyO2, cyO19, kB1, and kB7) demonstrated an ability to potentiate unfolding
- Ability to potentiate unfolding of HIV-1 IN (HIV-1 IN [14]): none of the four cyclotides used in this study (cyO2, cyO19, kB1, and kB7) demonstrated an ability to potentiate unfolding

Molecule: retrocyclin-1 [RC-1]
- Circular dichroism spectrum of N36/C34 [15]: transformed into a random coil-like spectrum
- Dengue virus DENV-2 replication (dengue virus DENV-2): inhibits dengue virus DENV-2 replication
- DENV-2 serine protease activity (serine protease): interfering with the activity of its serine protease
- Refolding of gp41 into 6-helix bundle (gp41 [8]): impaired refolding of gp41 into the 6-helix bundle structure triggering their aggregation

B1: HD-5: human enteric α-defensin HD-5, prepared by solid-phase peptide synthesis (peptide, UniProt Q01523 20-94, looked up)
Defensin alpha 5: ESLQERADEATTQKQSGEDNQDLAISFAGNGLSALRTSGSQARATCYCRTGRCATRESLSGVCEISGRLYRLCCR
modifications: Defensin-5
notes: human enteric α-defensin HD-5, prepared by solid-phase peptide synthesis
- Stability of Ad5.F35 capsid (Ad5.F35 capsid): overall stabilization of Ad5.F35 capsid
